Where two headings read alike, the source gives them in different places.

The target of test [1] is macrophage (1→3)-β-D-Glucan receptor. The note with it: cited from earlier work.
A further test concerns IL-6 mRNA. In words: RT-PCR of IL-6 mRNA levels in liver and lung after CLP. In kind it is in vivo, ICR/HSD mice. The method, then:
(§1) Cytokine reverse transcriptase-polymerase chain reaction (RT-PCR) assays were performed using standard techniques known to those of skill in the art. Upstream and downstream primers for murine TNF-α and IL-6 were used to detect presence of those cytokines. Reduced glyceraldehyde phosphate dehydrogenase (GAPDH) was used as the gene transcript control.
(§2) In studies of (1→3)-β-D-glucan effects on tissue damage due to sepsis, blood (˜0.3 ml) was obtained by open heart puncture from groups of 3 ICR/HSD mice subjected to cecal ligation and puncture (CLP), performed according to the method of Baker et al., Suryery (1983) 94: 331-335, as described by Ayala et al., Circ. Shock (1992) 36: 191-199. Mice subjected to laparotomy only (LO) served as surgical and anesthesia controls. Negative controls were not subjected to either procedure. Blood samples were collected from each group at 1, 2, 4, 8, and 24 hours after surgery. Samples were inoculated into prereduced anaerobically sterilized chopped meat carbohydrate broth (Carr-Scarborough, Stone Mountain, Ga.) under a constant stream of anaerobic carbon dioxide in a VPI Inoculator (Bellco Glass, Vineland, N.J.). After mixing, 1 ml of inoculated broth was aseptically removed from each 6-ml rubber-stoppered anaerobic tube into a sterile loose-capped aerobic culture tube. Both aerobic and anaerobic culture tubes were incubated at 37° C. for 72 hours.
(§3) In pretreatment protocols, 45 mice were randomly divided into 3 groups of 15 mice per group. Group 1 received isovolumetric saline solution intraperitoneally 1 hour before CLP. Group 2 received glucan phosphate (1 mg/mouse=50 mg/kg, intraperitoneally) 1 hour prior to CLP. Group 3 received scleroglucan (1 mg/mouse=50 mg/kg, intraperitoneally) 1 hour prior to CLP. […]
(§4) Survival trends were compared with the Cox proportional hazard and log-rank procedures. […] Differences in bacteremia between LO and CLP groups were assessed with exact probability level determinations. […]

The subject of another test is NF-κB. In words: EMSA of NF-κB nuclear binding activity in liver and lung after cecal ligation and puncture (CLP). To be noted: for decrease of liver NF-κB binding activity / decrease of lung NF-κB binding activity: tissue 3 hours after CLP. It is filed as in vivo, ICR/HSD mice. The method, then: (§5) Nuclear extracts were prepared by homogenizing tissue in hypotonic buffer containing protease inhibitors and incubating the homogenates on ice for approximately 30 minutes with gentle agitation. After cells were lysed, nuclei were collected by centrifugation (14,000 revolutions/min for 5 minutes). Nuclear proteins were extracted by incubating the nuclear fraction on ice for 30 minutes in hypertonic salt buffer containing protease inhibitors. Nuclear extract supernatant was harvested after centrifugation, then stored at −80° C. Protein was quantified by the BCA microprotein assay (Pierce, Rockford, Ill.).
(§6) The electrophoretic mobility shift assay (EMSA) was performed using double-stranded consensus binding site oligonucleotides for NF-κB and NF-IL6 (C/EBP, CCAAT enhancer binding protein), obtained from Santa Cruz Biotechnology (Santa Cruz, Calif.). Oligonucleotides were end-labeled with [γ-^32P]-labeled adenosine triphosphate (Amersham, Arlington Heights, Ill.) with T4 polynucleotide kinase (Promega, Madison, Wis.), using methods known to those of skill in the art. Binding assays were performed in 10 μl of binding reaction mixture containing 10 μg of nuclear proteins and [γ-^32P]-labeled NF-κB or NF-IL6 oligonucleotides. The binding reaction mixture was incubated at room temperature for 20 minutes, then electrophoresed on 4% non-denaturing polyacrylamide gel electrophoresis (PAGE) gels. Specificity of binding was confirmed by addition of a 10-fold excess of cold oligonucleotide to separate reaction mixtures. A 10-fold excess of cold oligonucleotide containing the AP-1 binding site was added to separate reaction mixtures as an additional control. After PAGE, gels were dried and exposed to Kodak X-omat® film at −70° C. Autoradiograms were quantified by scanning densitometry with a Sun IPC workstation running Bioimage® software (Millipore, Bedford, Mass.).
as §2
(§7) In pretreatment protocols, 45 mice were randomly divided into 3 groups of 15 mice per group. Group 1 received isovolumetric saline solution intraperitoneally 1 hour before CLP. Group 2 received glucan phosphate (1 mg/mouse=50 mg/kg, intraperitoneally) 1 hour prior to CLP. Group 3 received scleroglucan (1 mg/mouse=50 mg/kg, intraperitoneally) 1 hour prior to CLP. To assess tissue transcription factor activation and cytokine messenger RNA (mRNA) levels, liver and lung tissue were harvested from 5 mice per group at 3 hours after surgery. […] Laparoscopy-only (LO) controls and negative controls received the same saline, glucan phosphate, and scleroglucan treatment as CLP mice.
(§8) In post-treatment protocols, 30 mice were subjected to CLP. These 30 mice were then randomly divided into 2 groups of 15 mice per group. Group 1 received isovolumetric saline solution intravenously 15 minutes post surgery. Group 2 received glucan phosphate (1 mg/mouse=50 mg/kg, intravenously) 15 minutes postsurgery. […]
(In general: In EMSA bound probe runs differently from free probe, usually more slowly.)

For the next test, the system named is NF-IL6. In words: EMSA of NF-IL6 nuclear binding activity in liver and lung after CLP. To be noted: for decrease of liver NF-IL6 binding activity / decrease of lung NF-IL6 binding activity: tissue 3 hours after CLP. In kind it is in vivo, ICR/HSD mice. The method, then: as §5, §6, §2, §7, §8
For test [2], the system named is rat hearts subjected to ischemia/reperfusion. In words: myocardial infarct size after LAD occlusion and reperfusion, TTC staining. It is filed as in vivo, Sprague-Dawley rats. The note with it: 40 mg/kg intravenously 5 min after LAD occlusion, 4 hr reperfusion. The method, then: Ischemia/reperfusion protocols were performed using Sprague-Dawley rats (Harlan Sprague-Dawley, Indianapolis, Indiana). Left anterior descending (LAD) coronary artery occlusion was performed by tying off the LAD artery near its origin using a suture. Glucan phosphate was employed in the ischemia reperfusion (I/R) studies.
Sprague-Dawley rats (250-300 g) were treated, with (1→3)-β-D-glucans at a concentration of 40 mg/kg one hour before the hearts were subjected to 45 minutes of occlusion of the left anterior descending (LAD) coronary artery, followed by reperfusion for 4 hours. At the completion of the experimental protocol, the heart was removed, rinsed free of blood, stained with 1% Evans Blue, and sectioned into five slices, followed by incubation in triphenyltetrazolium chloride (TTC) solution. Viable myocardium (risk area) was stained with TTC while the necrotic myocardium was pale white. The area of infarction on both sides of each slice was analyzed by an image analyzer (Alpha Imager 2000), corrected for each slice weight and summed for each left ventricle. The infarct areas were expressed as a percentage of risk area as well as a percentage of left ventricle and the risk areas were expressed as a percentage of left ventricle.
Glucan phosphate (40 mg/kg) was administered to rats via intravenous route 5 min. after the rat hearts were subjected to occlusion of the left afterior descending (LAD) coronary artery, followed by 4 hr. reperfusion. Subsequently, the hearts were harvested and the infarct size/area at risk was determined using TTC staining and image analysis as described previously. FIG. 19 illustrates results, with infarct size expressed as percentage of risk area and risk area expressed as percentage of the left ventricle.

The subject of test [3] is ICR/HSD mice subjected to CLP (polymicrobial sepsis). In words: survival of mice with polymicrobial sepsis induced by CLP. It is filed as in vivo. The note with it: for long-term survival rate: CLP control 20%. The method, then:
as §2, §7
In post-treatment protocols, 30 mice were subjected to CLP. These 30 mice were then randomly divided into 2 groups of 15 mice per group. […]
as §4

Another test concerns TNF-α mRNA. In words: RT-PCR of TNF-α mRNA levels in liver and lung after CLP. It is filed as in vivo, ICR/HSD mice. The method, then: as §1, §2, §3, §4
The mark [4] stands for this setting: posttreatment 50 mg/kg intravenously 15 minutes post surgery.
The mark [5] stands for this setting: pretreatment 50 mg/kg, 3 hours after CLP.
Setting [6] is: posttreatment 50 mg/kg intravenously 15 minutes after CLP.
Setting [7] is: pretreatment 50 mg/kg 1 hour before CLP.

In the case of glucan phosphate, the Kd in test [1] (low affinity, read-out: affinity for the macrophage (1→3)-β-D-glucan receptor) was 24 µM. Further, the “effect on hepatic IL-6 mRNA levels” value in the test with IL-6 mRNA (setting [4]) is on record as “not altered”. Besides, in the test on IL-6 mRNA (setting [4]), the “suppression of lung IL-6 mRNA levels relative to CLP controls” value is recorded as 30%. For the same substance, the “suppression of hepatic IL-6 mRNA levels relative to CLP controls” value in the test with IL-6 mRNA (setting [5]) amounted to 49%. The “decrease of liver NF-κB binding activity” value was determined as 42% in the test on NF-κB (setting [6]) and 58% in the test with NF-κB (setting [7]). Also, the entries for the “decrease of lung NF-κB binding activity” value in the test with NF-κB (setting [6]) and with NF-κB (setting [7]) were 54% and 81%, respectively. Also, the “decrease of liver NF-IL6 binding activity” value with NF-IL6 (setting [6]) worked out at 95%; in the test on NF-IL6 (setting [7]) it was 77%. In addition, the figures for the “decrease of lung NF-IL6 binding activity” value in the test on NF-IL6 (setting [6]) and in the test with NF-IL6 (setting [7]) were 63% and 68%, respectively. Moreover, the “reduction of infarct size/area at risk compared to control IR group” value in test [2] is reported as 53%. Moreover, the “infarct size/area at risk” value in test [2] (mean±SEM, control IR 51.03±3.69%) amounted to 24.39±2.00%. Also, the long-term survival rate in test [3] (single posttreatment injection 50 mg/kg intravenously 15 minutes after CLP) and in test [3] (single prophylactic injection 50 mg/kg intraperitoneally 1 hour before CLP) was 65% each time. Besides, the “suppression of hepatic TNF-α mRNA levels relative to CLP controls” value is reported as 31% with TNF-α mRNA (setting [4]) and 44% with TNF-α mRNA (setting [5]). For the same substance, the “suppression of lung TNF-α mRNA levels relative to CLP controls” value in the test on TNF-α mRNA (setting [4]) turned out to be 28%.

For the substance scleroglucan, the Kd in test [1] (high affinity, read-out: affinity for the (1→3)-β-D-glucan receptor) is 0.011 µM. Also, the “decrease of liver NF-κB binding activity” value in the test with NF-κB (setting [7]) amounted to 54%. Further, in the test with NF-κB (setting [5]), the “effect on lung NF-κB nuclear binding activity” value is “inhibited”. For the same substance, the “decrease of liver NF-IL6 binding activity” value in the test with NF-IL6 (setting [7]) is 38%. Further, the “effect on lung NF-IL6 nuclear binding activity” value with NF-IL6 (setting [5]) is on record as “inhibited”. Moreover, the “effect on long-term survival” value in test [3] (50 mg/kg intraperitoneally 1 hour before CLP) is reported as “increased long-term survival”.

(Values after US6713459B1, “Methods for the prophylactic and therapeutic treatment of cardiac tissue damage” (East Tennessee State University, priority 2000, dated 2004).)
